Results reported in ChEMBL document CHEMBL1136019, “Structure-based optimisation of 2-aminobenzylstatine derivatives: potent and selective inhibitors of the chymotrypsin-like activity of the human 20S proteasome” (Bioorg Med Chem Lett, 2002).

Target: 20S proteasome
Experiment: Tested in vitro for inhibition of chymotrypsin like activity of purified human 20S proteasome
Type: subcellular

| IC50 | Compound |
| --- | --- |
| 900 nM | COc1ccc(CN[C@@H](C(=O)N[C@H](C(=O)NCc2ccc(OC)cc2O)C(C)C)[C@H](O)[C@H](Cc2ccccc2)NC(=O)[C@@H](NC(=O)OCc2ccccc2)C(C)(C)C)cc1 |
| > 20000 nM | COc1ccc(CNC(=O)[C@@H](NC(=O)[C@H](NCc2ccc(Oc3ccccc3)cc2)[C@H](O)[C@H](Cc2ccccc2)NC(=O)[C@@H](NC(=O)OCc2ccccc2)C(C)(C)C)C(C)C)c(O)c1 |
| 1500 nM | COc1cccc(CN[C@@H](C(=O)N[C@H](C(=O)NCc2ccc(OC)cc2O)C(C)C)[C@H](O)[C@H](Cc2ccccc2)NC(=O)[C@@H](NC(=O)OCc2ccccc2)C(C)(C)C)c1 |
| 150 nM | COc1ccc(CNC(=O)[C@@H](NC(=O)[C@H](NCc2ccc(OC)c(OC)c2)[C@H](O)[C@H](Cc2ccccc2)NC(=O)[C@@H](NC(=O)OCc2ccccc2)C(C)(C)C)C(C)C)c(O)c1 |
| 160 nM | COc1ccc(CNC(=O)[C@@H](NC(=O)[C@H](NCc2ccc(N(C)C)cc2)[C@H](O)[C@H](Cc2ccccc2)NC(=O)[C@@H](NC(=O)Cc2cccc3ccccc23)C(C)(C)C)C(C)C)c(O)c1 |
| 1600 nM | COc1ccc(CNC(=O)[C@@H](NC(=O)[C@H](NCc2ccc(C(C)C)cc2)[C@H](O)[C@H](Cc2ccccc2)NC(=O)[C@@H](NC(=O)OCc2ccccc2)C(C)(C)C)C(C)C)c(O)c1 |
| > 20000 nM | COc1ccc(CNC(=O)[C@@H](NC(=O)[C@H](NCc2ccc(-c3ccccc3)cc2)[C@H](O)[C@H](Cc2ccccc2)NC(=O)[C@@H](NC(=O)OCc2ccccc2)C(C)(C)C)C(C)C)c(O)c1 |
| 200 nM | COc1ccc(CNC(=O)[C@@H](NC(=O)[C@H](NCc2cc(OC)c(OC)cc2OC)[C@H](O)[C@H](Cc2ccccc2)NC(=O)[C@@H](NC(=O)OCc2ccccc2)C(C)(C)C)C(C)C)c(O)c1 |
| 50 nM | COc1ccc(CNC(=O)[C@@H](NC(=O)[C@H](NCc2cc(OC)c(OC)c(OC)c2)[C@H](O)[C@H](Cc2ccccc2)NC(=O)[C@@H](NC(=O)OCc2ccccc2)C(C)(C)C)C(C)C)c(O)c1 |
| 18 nM | COc1ccc(CNC(=O)[C@@H](NC(=O)[C@H](NCc2ccc(OC)c(OC)c2OC)[C@H](O)[C@H](Cc2ccccc2)NC(=O)[C@@H](NC(=O)Cc2cccc3ccccc23)C(C)(C)C)C(C)C)c(O)c1 |
| 100 nM | COc1ccc(CN[C@@H](C(=O)N[C@H](C(=O)NCc2ccc(OC)cc2O)C(C)C)[C@H](O)[C@H](Cc2ccccc2)NC(=O)[C@@H](NC(=O)Cc2cccc3ccccc23)C(C)(C)C)cc1 |
| 190 nM | COc1cc(CN[C@@H](C(=O)N[C@H](C(=O)NCc2ccc(OC)cc2O)C(C)C)[C@H](O)[C@H](Cc2ccccc2)NC(=O)[C@@H](NC(=O)OCc2ccccc2)C(C)(C)C)cc(OC)c1 |
| > 20000 nM | COc1ccc(CNC(=O)[C@@H](NC(=O)[C@H](NCc2ccccc2)[C@H](O)[C@H](Cc2ccccc2)NC(=O)[C@@H](NC(=O)OCc2ccccc2)C(C)(C)C)C(C)C)c(O)c1 |
| > 20000 nM | COc1ccc(CNC(=O)[C@@H](NC(=O)[C@H](NCc2ccccc2OC)[C@H](O)[C@H](Cc2ccccc2)NC(=O)[C@@H](NC(=O)OCc2ccccc2)C(C)(C)C)C(C)C)c(O)c1 |
| 1600 nM | COc1ccc(CNC(=O)[C@@H](NC(=O)[C@H](NCc2ccc(OC)cc2OC)[C@H](O)[C@H](Cc2ccccc2)NC(=O)[C@@H](NC(=O)OCc2ccccc2)C(C)(C)C)C(C)C)c(O)c1 |
| 29 nM | COc1ccc(CNC(=O)[C@@H](NC(=O)[C@H](NCc2cc(OC)c(OC)cc2OC)[C@H](O)[C@H](Cc2ccccc2)NC(=O)[C@@H](NC(=O)Cc2cccc3ccccc23)C(C)(C)C)C(C)C)c(O)c1 |
| 100 nM | COc1ccc(CNC(=O)[C@@H](NC(=O)[C@H](NCc2ccc(OC)c(OC)c2OC)[C@H](O)[C@H](Cc2ccccc2)NC(=O)[C@@H](NC(=O)OCc2ccccc2)C(C)(C)C)C(C)C)c(O)c1 |
| 600 nM | COc1ccc(CNC(=O)[C@@H](NC(=O)[C@H](NCc2ccc(N(C)C)cc2)[C@H](O)[C@H](Cc2ccccc2)NC(=O)[C@@H](NC(=O)OCc2ccccc2)C(C)(C)C)C(C)C)c(O)c1 |
| 7 nM | COc1ccc(CNC(=O)[C@@H](NC(=O)[C@H](NCc2cc(OC)c(OC)c(OC)c2)[C@H](O)[C@H](Cc2ccccc2)NC(=O)[C@@H](NC(=O)Cc2cccc3ccccc23)C(C)(C)C)C(C)C)c(O)c1 |
